{"source": "patent US20220111055A1", "about": "“MODIFIED HYDROPHOBIC EXCIPIENT AND PREPARATION METHOD THEREOF” (ZHEJIANG ZHIDA PHARMACEUTICAL CO., LTD., priority 2019, published 2022)", "assay": "Solubility of paclitaxel in olive oil, castor oil and hydrophobic excipients (crystal formation in dried sample)", "format": "physicochemical", "conditions": "for solubility of paclitaxel (crystal formation in the dried sample): 0.5 ml paclitaxel chloroform solution (10 mg/ml), volatilized overnight", "protocol": "The specific experimental method was as follows. […] The chloroform solution was mixed with 0.5 ml of chloroform, from which 0.5 ml of diluent was taken and two-fold serial dilution was performed by using chloroform. Then 0.5 ml of a chloroform solution of paclitaxel (10 mg/ml) was added to the above-mentioned sample after the two-fold serial dilution, and then left in a hood to be naturally volatilized overnight. Crystal formation in the dried sample was observed and recorded."}
{"smiles": "CCCCCCCC/C=C\\CCCCCCCCNC(=O)CC[C@@H](C)[C@H]1CC[C@H]2[C@@H]3[C@H](OC(=O)CNC(=O)[C@H](CCCCNC(=O)OC(C)(C)C)NC(=O)OCC4c5ccccc5-c5ccccc54)C[C@@H]4C[C@H](OC(=O)CNC(=O)[C@H](CCCCNC(=O)OC(C)(C)C)NC(=O)OCC5c6ccccc6-c6ccccc65)CC[C@]4(C)[C@H]3C[C@H](OC(=O)CNC(=O)[C@H](CCCCNC(=O)OC(C)(C)C)NC(=O)OCC3c4ccccc4-c4ccccc43)[C@]12C", "note": "[Example 4]", "values": [{"measurement": "solubility of paclitaxel (crystal formation in the dried sample)", "setting": "0.98 mg hydrophobic excipient", "value": "+"}, {"measurement": "solubility of paclitaxel (crystal formation in the dried sample)", "setting": "1.95 mg hydrophobic excipient", "value": "+"}, {"measurement": "solubility of paclitaxel (crystal formation in the dried sample)", "setting": "3.90 mg hydrophobic excipient", "value": "+"}, {"measurement": "solubility of paclitaxel (crystal formation in the dried sample)", "setting": "7.81 mg hydrophobic excipient", "value": "+/−"}, {"measurement": "solubility of paclitaxel (crystal formation in the dried sample)", "setting": "15.65 mg hydrophobic excipient", "value": "−"}, {"measurement": "solubility of paclitaxel (crystal formation in the dried sample)", "setting": "31.30 mg hydrophobic excipient", "value": "−"}, {"measurement": "solubility of paclitaxel (crystal formation in the dried sample)", "setting": "62.50 mg hydrophobic excipient", "value": "−"}, {"measurement": "solubility of paclitaxel (crystal formation in the dried sample)", "setting": "125.00 mg hydrophobic excipient", "value": "−"}, {"measurement": "solubility of paclitaxel (crystal formation in the dried sample)", "setting": "250.00 mg hydrophobic excipient", "value": "−"}, {"measurement": "solubility of paclitaxel in the excipient, comparison in words", "setting": "compared with olive oil and castor oil, from Table 1", "value": "greater than that in olive oil and castor oil"}]}
